{
  "source": "patent US20250176599A1",
  "about": "“FLAVOR COMPOSITION AND FOOD AND BEVERAGE” (TAKASAGO INTERNATIONAL CORPORATION, priority 2021, published 2025)",
  "key": {"[1]": {"experiment": "Sensory evaluation of aqueous solution I containing (E)-2-nonenal 1 ppb: off-flavor intensity and masking component intensity", "settings": "(E)-2-nonenal 1 ppb, average score 0-4", "method_in_brief": "(§1)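 8 trained panelists; degradant in ion-exchanged water + nootkatone. Off-flavor 0–4, relative (no masker = 4, water = 0); masker flavor 0–4, absolute.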"}, "[2]": {"experiment": "Sensory evaluation of aqueous solution II containing (E)-2-octenal 10 ppb: off-flavor intensity and masking component intensity", "settings": "(E)-2-octenal 10 ppb, average score 0-4", "method_in_brief": "as §1"}, "[3]": {"experiment": "Sensory evaluation of aqueous solution IV containing 1,5-octadien-3-one 100 ppt: off-flavor intensity and masking component intensity", "settings": "aqueous solution IV, 1,5-octadien-3-one 100 ppt, average score 0-4", "method_in_brief": "as §1"}, "[4]": {"experiment": "Overall conclusion of the sensory evaluation across aqueous solutions I to VI", "method_in_brief": "as §1"}, "[5]": {"experiment": "Sensory evaluation of aqueous solution VI containing 1,5-octadien-3-ol 10 ppb: off-flavor intensity and masking component intensity", "settings": "aqueous solution VI, 1,5-octadien-3-ol 10 ppb, average score 0-4", "method_in_brief": "as §1"}, "[6]": {"experiment": "Sensory evaluation of aqueous solution V containing 1-octen-3-ol 10 ppb: off-flavor intensity and masking component intensity", "settings": "1-octen-3-ol 10 ppb, average score 0-4", "method_in_brief": "as §1"}, "[7]": {"experiment": "Overall conclusion of the sensory evaluation across mayonnaises I and II", "experimental": "(§2) To commercially available mayonnaise (“Kewpie Mayonnaise” manufactured by Kewpie Corporation), each degradation component was added to prepare degradation component-added mayonnaises I and II at the concentrations listed in Table 20. To these degradation component-added mayonnaises, oleic acid was added at the concentrations listed in Table 21 to confirm the intensity of the off-flavor (masking effect) and the intensity of the masking components (impact on the flavor of the mayonnaise itself) for each sample.\n(§3) Six experienced panelists were selected to conduct a sensory evaluation similar to that of Example 1."}, "[8]": {"experiment": "Sensory evaluation of degradation component-added mayonnaise I (1-octen-3-ol 200 ppb)", "settings": "average panel score", "experimental": "as §2, §3"}, "[9]": {"experiment": "Sensory evaluation of aqueous solution III containing 1-octen-3-one 1 ppb: off-flavor intensity and masking component intensity", "settings": "1-octen-3-one 1 ppb, average score 0-4", "method_in_brief": "as §1"}},
  "data": [
    {"smiles": "CCCCCCCC/C=C\\CCCCCCCC(=O)O", "note": "[Oleic Acid, oleic acid]", "values": [
      {"measurement": "Off-Flavor Intensity", "setting": "[1]; 1 ppm added", "result": 1.8, "unit": "points"},
      {"measurement": "Off-Flavor Intensity", "setting": "[1]; 5 ppm added", "result": 1.4, "unit": "points"},
      {"measurement": "Off-Flavor Intensity", "setting": "[1]; 10 ppb added", "result": 3.5, "unit": "points"},
      {"measurement": "Off-Flavor Intensity", "setting": "[1]; 10 ppm added", "result": 1.3, "unit": "points"},
      {"measurement": "Off-Flavor Intensity", "setting": "[1]; 50 ppb added", "result": 3.1, "unit": "points"},
      {"measurement": "Off-Flavor Intensity", "setting": "[1]; 100 ppb added", "result": 2.8, "unit": "points"},
      {"measurement": "Off-Flavor Intensity", "setting": "[1]; 500 ppb added", "result": 2.4, "unit": "points"},
      {"measurement": "Off-Flavor Intensity", "setting": "[2]; 1 ppm added", "result": 1.6, "unit": "points"},
      {"measurement": "Off-Flavor Intensity", "setting": "[2]; 5 ppm added", "result": 1.1, "unit": "points"},
      {"measurement": "Off-Flavor Intensity", "setting": "[2]; 10 ppb added", "result": 2.8, "unit": "points"},
      {"measurement": "Off-Flavor Intensity", "setting": "[2]; 10 ppm added", "result": 1.1, "unit": "points"},
      {"measurement": "Off-Flavor Intensity", "setting": "[2]; 50 ppb added", "result": 2.5, "unit": "points"},
      {"measurement": "Off-Flavor Intensity", "setting": "[2]; 100 ppb added", "result": 1.9, "unit": "points"},
      {"measurement": "Off-Flavor Intensity", "setting": "[2]; 500 ppb added", "result": 1.5, "unit": "points"},
      {"measurement": "Off-Flavor Intensity", "setting": "[3]; 1 ppm added", "result": 2.0, "unit": "points"},
      {"measurement": "Off-Flavor Intensity", "setting": "[3]; 5 ppm added", "result": 1.9, "unit": "points"},
      {"measurement": "Off-Flavor Intensity", "setting": "[3]; 10 ppb added", "result": 3.4, "unit": "points"},
      {"measurement": "Off-Flavor Intensity", "setting": "[3]; 10 ppm added", "result": 1.5, "unit": "points"},
      {"measurement": "Off-Flavor Intensity", "setting": "[3]; 50 ppb added", "result": 3.3, "unit": "points"},
      {"measurement": "Off-Flavor Intensity", "setting": "[3]; 100 ppb added", "result": 2.9, "unit": "points"},
      {"measurement": "Off-Flavor Intensity", "setting": "[3]; 500 ppb added", "result": 2.5, "unit": "points"},
      {"measurement": "concentration that masks the off-flavor and does not affect the flavor of the food and/or beverage itself, lower limit", "setting": "[4]", "result": "≥ 10", "unit": "ppb"},
      {"measurement": "concentration that masks the off-flavor and does not affect the flavor of the food and/or beverage itself, upper limit", "setting": "[4]", "result": "≤ 10", "unit": "ppm"},
      {"measurement": "Off-Flavor Intensity", "setting": "[5]; 1 ppm added", "result": 1.3, "unit": "points"},
      {"measurement": "Off-Flavor Intensity", "setting": "[5]; 5 ppm added", "result": 1.5, "unit": "points"},
      {"measurement": "Off-Flavor Intensity", "setting": "[5]; 10 ppb added", "result": 2.6, "unit": "points"},
      {"measurement": "Off-Flavor Intensity", "setting": "[5]; 10 ppm added", "result": 1.3, "unit": "points"},
      {"measurement": "Off-Flavor Intensity", "setting": "[5]; 50 ppb added", "result": 2.4, "unit": "points"},
      {"measurement": "Off-Flavor Intensity", "setting": "[5]; 100 ppb added", "result": 1.9, "unit": "points"},
      {"measurement": "Off-Flavor Intensity", "setting": "[5]; 500 ppb added", "result": 1.6, "unit": "points"},
      {"measurement": "Off-Flavor Intensity", "setting": "[6]; 1 ppm added", "result": 1.9, "unit": "points"},
      {"measurement": "Off-Flavor Intensity", "setting": "[6]; 5 ppm added", "result": 1.8, "unit": "points"},
      {"measurement": "Off-Flavor Intensity", "setting": "[6]; 10 ppb added", "result": 3.4, "unit": "points"},
      {"measurement": "Off-Flavor Intensity", "setting": "[6]; 10 ppm added", "result": 1.1, "unit": "points"},
      {"measurement": "Off-Flavor Intensity", "setting": "[6]; 50 ppb added", "result": 2.6, "unit": "points"},
      {"measurement": "Off-Flavor Intensity", "setting": "[6]; 100 ppb added", "result": 2.9, "unit": "points"},
      {"measurement": "Off-Flavor Intensity", "setting": "[6]; 500 ppb added", "result": 2.3, "unit": "points"},
      {"measurement": "concentration that masks the off-flavor and does not affect the flavor of the mayonnaise itself, lower limit", "setting": "[7]", "result": "≥ 500", "unit": "ppb"},
      {"measurement": "concentration that masks the off-flavor and does not affect the flavor of the mayonnaise itself, upper limit", "setting": "[7]", "result": "≤ 100", "unit": "ppm"},
      {"measurement": "Masking Component Intensity", "setting": "[8]; 1 ppm added", "result": 0.3},
      {"measurement": "Off-Flavor Intensity", "setting": "[8]; 1 ppm added", "result": 1.8},
      {"measurement": "Masking Component Intensity", "setting": "[8]; 5 ppm added", "result": 0.7},
      {"measurement": "Off-Flavor Intensity", "setting": "[8]; 5 ppm added", "result": 1.7},
      {"measurement": "Masking Component Intensity", "setting": "[8]; 10 ppm added", "result": 0.8},
      {"measurement": "Off-Flavor Intensity", "setting": "[8]; 10 ppm added", "result": 1.2},
      {"measurement": "Masking Component Intensity", "setting": "[8]; 50 ppm added", "result": 1.7},
      {"measurement": "Off-Flavor Intensity", "setting": "[8]; 50 ppm added", "result": 0.8},
      {"measurement": "Masking Component Intensity", "setting": "[8]; 100 ppb added", "result": 0.0},
      {"measurement": "Off-Flavor Intensity", "setting": "[8]; 100 ppb added", "result": 3.3},
      {"measurement": "Masking Component Intensity", "setting": "[8]; 100 ppm added", "result": 2.2},
      {"measurement": "Off-Flavor Intensity", "setting": "[8]; 100 ppm added", "result": 0.5},
      {"measurement": "Masking Component Intensity", "setting": "[8]; 500 ppb added", "result": 0.2},
      {"measurement": "Off-Flavor Intensity", "setting": "[8]; 500 ppb added", "result": 2.5},
      {"measurement": "Off-Flavor Intensity", "setting": "[9]; 1 ppm added", "result": 2.8, "unit": "points"},
      {"measurement": "Off-Flavor Intensity", "setting": "[9]; 5 ppm added", "result": 2.4, "unit": "points"},
      {"measurement": "Off-Flavor Intensity", "setting": "[9]; 10 ppb added", "result": 3.5, "unit": "points"},
      {"measurement": "Off-Flavor Intensity", "setting": "[9]; 10 ppm added", "result": 1.9, "unit": "points"},
      {"measurement": "Off-Flavor Intensity", "setting": "[9]; 50 ppb added", "result": 3.4, "unit": "points"},
      {"measurement": "Off-Flavor Intensity", "setting": "[9]; 100 ppb added", "result": 3.3, "unit": "points"},
      {"measurement": "Off-Flavor Intensity", "setting": "[9]; 500 ppb added", "result": 2.5, "unit": "points"}
    ]}
  ]
}
